How the values were obtained:
Format in all cases: cell-based, mouse
BMMs [1] = test: Bone resorption assay on hydroxyapatite-coated Osteo Assay plates; details: 25 nM, compared with the control group
Method: To explore the effect of DZNep on the function of osteoclast, BMMs on complete α-MEM were seeded at the density of 1 × 10^4 cells/well, in triplicate, on the Osteo Assay Surface plates (Corning, NY, USA). After thirty-six hours, the culture medium was replaced by complete α-MEM, with RANKL (50 ng/mL), and various doses of DZNep (control, 6.25, 12.5, and 25 nM). For EZH2 gene knockdown studies, the cells were transfected with virus constructed of different EZH2 short hairpin RNA (shRNA) and negative control shRNA by mixed with polybrene (final concentration of 10ug/ml) for 48 h. The transfection mixture was then replaced by complete α-MEM added with puromycin for 24 h, and the survived BMMs were seeded into a 96-well plate, in triplicate, at a density of 1 × 10^4 cells/well. The medium needs to be constantly replaced until the osteoclast had matured for 1 day. For Foxc1 inhibition experiment, the cells were separately transfected with negative control siRNA, negative control siRNA with DZNep, and Foxc1 small interfering RNA (siRNA) with DZNep and by mixed with transfection reagent and osteoclast culture medium. The transfection mixture was then replaced every 2 days until the osteoclast had been observed for 2 days. […] The total area of resorption was photographed and then calculated by ImageJ software (NIH, Bethesda, MD, USA).

BMMs [2] = test: Immunofluorescence of podosome actin belt; details: 25 nM, vs control
Method: BMMs in complete α-MEM with or without 25 nM DZNep were seeded in 6-well plates at a density of 1 × 10^5 cells/well and cultured for 6 days. Once the matured osteoclast could be observed, the plate was washed by PBS and then fixed with 4% paraformaldehyde. The 10 min 0.2% Triton X-PBS was then performed for permeabilizing. After three times washing by PBS, FITC-labeled phalloidin was added for 1 h in darkness to bounds with the cells F-actin ring. The nuclei were stained at RT for 5 min without light by 4′, 6-diamidino-2-phenylindole (DAPI). After the final PBS wash, the perimeter of the actin ring could be observed by the fluorescence microscope (Leica) and analyzed using ImageJ software (NIH, Bethesda, MD, USA).

EZH2 and H3K27me3 [3] = test: Western blotting of EZH2 and H3K27me3 in BMMs; details: 25 nM; 0, 1, 3, 5 days with RANKL, vs control
Method: To explore the variation of the proteins on long-term activated signaling, BMMs were cultured in α-MEM containing M-CSF (30 ng/ml) and RANKL (50 ng/ml) at a density of 2 × 10^5 cells/well on 6-well plates. After 24 h, the BMMs were treated with or without 25 nM DZNep for 0, 1, 3, and 5 days, and total protein was obtained, respectively, on these specific time points. To determine the effect of DZNep on the protein of short-time activated phosphorylated, RAW264.7 cells were cultured in α-MEM at a density of 5 × 10^5 cells/well on 6-well plates. One day later, the cells were treated with the serum-free α-MEM in the presence or absence of DZNEP for 3 hand then stimulated with 50 ng/mL RANKL for 0, 10, 20, 30, and 60 min. To determine the efficiency of EZH2 shRna, BMMs were cultured in α-MEM at a density of 5 × 10^5 cells/well on 6-well plates. One day later, the cells were treated with negative control shRNA or different EZH2 shRNA for 2 days. To determine the efficiency of Foxc1 siRna, BMMs were cultured in α-MEM at a density of 5 × 10^5 cells/well on 6-well plates. […] After TBST wash for 3 times, the secondary fluorescence antibodies were incubated without light for 1 h at room temperature and the reactivity was visualized by using Odyssey V3.0 image scanning (Li-COR. Inc., Lincoln, NE, USA). […]

EZH2 and H3K27me3 [4] = test: Western blotting of EZH2, H3K27me3 and GSK-3β in BMSC

Nc1nccc2c1ncn2C1C=C(CO)C(O)C1O (centres unmarked) [DZNep, 3-Deazaneplanocin]
bone resorption area (BMMs [1]): more than 30% | podosome actin belt formation of osteoclast (BMMs [2]): promoted the podosome actin belt formation | EZH2 and H3K27me3 expression in BMMs (EZH2 and H3K27me3 [3]): decreased at a time manner | EZH2 and H3k27me3 expression in BMSC (EZH2 and H3K27me3 [4]; 0, 25, 50, 100 nM, 24 h, vs control): dose-dependent decreased | phosphorylation level of GSK-3β (EZH2 and H3K27me3 [4]; BMSC): no significant change
